Test results taken from patent US11331299B2, “Medicinal use of serrulatane diterpenes” (The University of Sydney, priority 2016, dated 2022).

Tests used:
[1] = target: EZH1/EED/SUZ12 (h) (Homo sapiens, UniProt Q92800); assay: Epigenetic enzyme assay, Methyltransferases (MTs); format: biochemical; details: read-out: % Inhibition of Control Values
[2] = target: T1, JMJD2E (h) (Homo sapiens, UniProt B2RXH2); assay: Epigenetic enzyme assay, Demethylases (KDMs); format: biochemical; details: 10 μM; read-out: % Inhibition of Control Values
T1 sequence (B2RXH2 1-506): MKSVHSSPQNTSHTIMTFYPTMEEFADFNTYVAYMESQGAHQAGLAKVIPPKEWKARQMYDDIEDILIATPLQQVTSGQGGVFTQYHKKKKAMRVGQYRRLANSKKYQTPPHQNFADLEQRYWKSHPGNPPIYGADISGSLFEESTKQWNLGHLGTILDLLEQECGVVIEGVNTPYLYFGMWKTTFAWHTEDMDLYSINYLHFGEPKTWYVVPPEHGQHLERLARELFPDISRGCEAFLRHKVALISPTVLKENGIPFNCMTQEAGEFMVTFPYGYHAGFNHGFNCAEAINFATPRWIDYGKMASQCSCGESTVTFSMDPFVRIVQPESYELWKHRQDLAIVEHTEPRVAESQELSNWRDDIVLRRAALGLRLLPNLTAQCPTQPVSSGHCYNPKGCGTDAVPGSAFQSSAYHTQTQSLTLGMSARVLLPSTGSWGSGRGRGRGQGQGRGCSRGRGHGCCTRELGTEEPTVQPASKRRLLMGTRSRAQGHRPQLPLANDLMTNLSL

[3] = target: PKBgamma/AKT3(h) (substrate histone H3 full length) (Homo sapiens, UniProt Q9Y243); assay: Epigenetic enzyme assay, Kinases; format: biochemical; details: read-out: % Inhibition of Control Values
Sequence of PKBgamma/AKT3(h) (substrate histone H3 full length) (Q9Y243 whole entry): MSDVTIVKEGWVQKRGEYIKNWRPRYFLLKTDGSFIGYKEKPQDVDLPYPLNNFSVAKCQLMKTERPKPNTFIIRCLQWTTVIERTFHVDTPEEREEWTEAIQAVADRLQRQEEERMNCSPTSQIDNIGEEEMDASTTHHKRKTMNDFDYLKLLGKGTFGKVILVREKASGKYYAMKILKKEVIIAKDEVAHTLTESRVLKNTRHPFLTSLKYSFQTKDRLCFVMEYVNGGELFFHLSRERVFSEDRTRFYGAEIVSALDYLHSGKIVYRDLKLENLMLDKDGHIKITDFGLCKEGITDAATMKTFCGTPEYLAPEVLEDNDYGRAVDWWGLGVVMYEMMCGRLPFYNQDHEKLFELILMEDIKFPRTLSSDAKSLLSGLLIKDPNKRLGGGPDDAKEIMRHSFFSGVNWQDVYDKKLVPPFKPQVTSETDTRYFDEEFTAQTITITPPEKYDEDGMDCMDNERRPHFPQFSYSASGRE

[4] = target: HDAC3 (h) (Homo sapiens, UniProt O15379); assay: Epigenetic enzyme assay, Histone deacetylase (HDACs); format: biochemical; details: read-out: % Inhibition of Control Values
Sequence of HDAC3 (h) (O15379 whole entry): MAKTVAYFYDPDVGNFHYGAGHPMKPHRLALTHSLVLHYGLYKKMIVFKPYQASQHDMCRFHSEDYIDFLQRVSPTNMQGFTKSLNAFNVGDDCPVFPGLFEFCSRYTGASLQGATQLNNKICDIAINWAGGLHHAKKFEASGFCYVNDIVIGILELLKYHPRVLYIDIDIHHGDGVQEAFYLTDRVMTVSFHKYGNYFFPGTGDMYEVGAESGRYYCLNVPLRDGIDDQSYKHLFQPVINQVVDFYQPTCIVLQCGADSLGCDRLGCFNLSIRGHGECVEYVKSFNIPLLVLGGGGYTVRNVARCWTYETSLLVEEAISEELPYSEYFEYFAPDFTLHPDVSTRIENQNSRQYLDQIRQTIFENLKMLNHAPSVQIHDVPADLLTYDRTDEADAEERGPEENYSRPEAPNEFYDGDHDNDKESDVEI
Sequence of HDAC3 (h) (Q9Y618 395-489 partner limits assumed): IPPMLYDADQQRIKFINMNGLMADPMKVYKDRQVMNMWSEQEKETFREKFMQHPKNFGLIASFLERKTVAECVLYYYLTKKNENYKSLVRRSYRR

[5] = target: HDAC2 (h) (Homo sapiens, UniProt Q92769); assay: as above; format: biochemical; details: read-out: % Inhibition of Control Values
Sequence of HDAC2 (h) (Q92769 whole entry): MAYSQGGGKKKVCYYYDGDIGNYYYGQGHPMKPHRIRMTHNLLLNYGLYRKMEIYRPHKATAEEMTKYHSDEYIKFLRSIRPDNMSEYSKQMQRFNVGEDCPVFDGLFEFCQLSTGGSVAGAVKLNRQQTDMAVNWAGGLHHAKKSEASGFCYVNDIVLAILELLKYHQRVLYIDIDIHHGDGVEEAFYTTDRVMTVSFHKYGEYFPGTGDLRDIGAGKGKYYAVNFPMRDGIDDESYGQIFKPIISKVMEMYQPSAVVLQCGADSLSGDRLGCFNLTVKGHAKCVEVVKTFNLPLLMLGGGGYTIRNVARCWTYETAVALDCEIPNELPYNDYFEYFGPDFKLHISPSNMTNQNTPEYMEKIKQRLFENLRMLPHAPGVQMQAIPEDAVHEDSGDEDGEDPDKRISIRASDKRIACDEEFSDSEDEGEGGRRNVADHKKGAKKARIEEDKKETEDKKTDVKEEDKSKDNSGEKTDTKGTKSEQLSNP

[6] = system: 43 cancer cell lines and one normal cell line; assay: In vitro cell viability assay (intracellular ATP, 72 hour); format: cell-based; details: 10 μM
[7] = target: T2, WHSC1(h) (NSD2(h)) (Homo sapiens, UniProt O96028); assay: Epigenetic enzyme assay, Methyltransferases (MTs); format: biochemical; details: 10 μM; read-out: % Inhibition of Control Values
T2 sequence (O96028 1-1365): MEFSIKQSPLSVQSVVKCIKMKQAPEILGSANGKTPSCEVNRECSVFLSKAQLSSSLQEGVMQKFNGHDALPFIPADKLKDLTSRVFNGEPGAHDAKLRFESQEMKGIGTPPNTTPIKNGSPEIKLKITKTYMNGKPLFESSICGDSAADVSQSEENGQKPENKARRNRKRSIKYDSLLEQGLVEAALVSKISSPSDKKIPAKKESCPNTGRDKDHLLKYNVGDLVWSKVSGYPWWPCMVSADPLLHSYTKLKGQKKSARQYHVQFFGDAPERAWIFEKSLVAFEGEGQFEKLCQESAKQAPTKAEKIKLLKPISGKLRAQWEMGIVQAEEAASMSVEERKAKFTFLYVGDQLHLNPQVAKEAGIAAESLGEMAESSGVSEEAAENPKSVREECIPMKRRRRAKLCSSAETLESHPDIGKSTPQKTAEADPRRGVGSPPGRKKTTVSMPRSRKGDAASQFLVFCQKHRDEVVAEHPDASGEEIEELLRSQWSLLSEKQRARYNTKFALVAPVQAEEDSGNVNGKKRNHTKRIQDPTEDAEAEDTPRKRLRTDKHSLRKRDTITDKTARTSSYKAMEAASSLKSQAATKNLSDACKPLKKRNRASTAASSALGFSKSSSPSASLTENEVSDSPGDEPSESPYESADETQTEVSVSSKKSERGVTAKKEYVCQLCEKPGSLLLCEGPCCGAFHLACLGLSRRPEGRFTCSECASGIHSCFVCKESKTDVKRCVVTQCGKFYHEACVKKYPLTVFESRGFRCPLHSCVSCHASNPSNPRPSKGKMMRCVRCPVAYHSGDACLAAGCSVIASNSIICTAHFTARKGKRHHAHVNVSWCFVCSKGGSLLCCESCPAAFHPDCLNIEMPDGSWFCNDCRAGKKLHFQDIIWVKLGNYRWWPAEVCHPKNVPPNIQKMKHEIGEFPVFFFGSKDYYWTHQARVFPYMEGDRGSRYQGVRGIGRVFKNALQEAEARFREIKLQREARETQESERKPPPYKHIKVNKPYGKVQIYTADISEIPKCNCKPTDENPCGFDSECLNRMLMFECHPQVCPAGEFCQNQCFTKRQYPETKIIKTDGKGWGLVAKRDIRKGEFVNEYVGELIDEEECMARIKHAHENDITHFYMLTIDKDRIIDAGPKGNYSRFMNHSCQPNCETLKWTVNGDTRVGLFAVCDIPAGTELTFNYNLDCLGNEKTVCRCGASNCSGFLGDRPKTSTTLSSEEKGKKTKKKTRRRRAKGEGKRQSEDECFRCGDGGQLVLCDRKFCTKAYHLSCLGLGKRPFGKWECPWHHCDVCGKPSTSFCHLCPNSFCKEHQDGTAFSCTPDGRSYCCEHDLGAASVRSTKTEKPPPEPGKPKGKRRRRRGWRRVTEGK

Sequence of EZH1/EED/SUZ12 (h) (Q92800 whole entry): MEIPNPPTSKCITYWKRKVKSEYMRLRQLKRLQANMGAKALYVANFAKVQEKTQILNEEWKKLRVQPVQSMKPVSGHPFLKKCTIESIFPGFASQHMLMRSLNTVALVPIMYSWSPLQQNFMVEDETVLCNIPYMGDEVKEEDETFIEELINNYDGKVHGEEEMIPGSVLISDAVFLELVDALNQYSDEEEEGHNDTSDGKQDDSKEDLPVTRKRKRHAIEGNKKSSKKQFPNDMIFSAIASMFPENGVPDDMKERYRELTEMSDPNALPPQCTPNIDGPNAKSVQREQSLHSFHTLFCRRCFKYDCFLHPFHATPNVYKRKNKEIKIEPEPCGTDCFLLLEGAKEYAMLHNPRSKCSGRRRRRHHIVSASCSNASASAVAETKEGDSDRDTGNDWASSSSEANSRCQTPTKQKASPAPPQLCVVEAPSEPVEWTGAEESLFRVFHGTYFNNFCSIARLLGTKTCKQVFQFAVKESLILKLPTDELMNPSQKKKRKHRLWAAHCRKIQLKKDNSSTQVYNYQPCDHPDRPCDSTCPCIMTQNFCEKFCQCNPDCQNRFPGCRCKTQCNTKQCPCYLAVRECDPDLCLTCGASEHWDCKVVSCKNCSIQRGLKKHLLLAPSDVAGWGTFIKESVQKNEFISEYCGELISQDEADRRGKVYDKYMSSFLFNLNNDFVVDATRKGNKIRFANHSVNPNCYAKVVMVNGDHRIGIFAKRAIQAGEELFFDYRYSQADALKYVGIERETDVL
Sequence of EZH1/EED/SUZ12 (h) (O75530 whole entry partner): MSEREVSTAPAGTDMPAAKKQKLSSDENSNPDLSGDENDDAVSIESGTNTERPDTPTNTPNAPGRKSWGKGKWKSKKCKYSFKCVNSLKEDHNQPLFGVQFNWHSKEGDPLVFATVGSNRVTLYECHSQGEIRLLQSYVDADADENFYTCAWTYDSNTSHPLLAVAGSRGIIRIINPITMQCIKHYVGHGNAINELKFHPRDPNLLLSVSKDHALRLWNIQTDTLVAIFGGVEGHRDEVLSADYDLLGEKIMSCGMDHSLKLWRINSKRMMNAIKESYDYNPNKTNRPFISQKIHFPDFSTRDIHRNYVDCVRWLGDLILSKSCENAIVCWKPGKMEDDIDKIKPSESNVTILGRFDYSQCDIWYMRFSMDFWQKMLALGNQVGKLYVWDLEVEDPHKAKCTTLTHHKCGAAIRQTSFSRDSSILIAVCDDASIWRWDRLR
Sequence of EZH1/EED/SUZ12 (h) (Q15022 whole entry partner): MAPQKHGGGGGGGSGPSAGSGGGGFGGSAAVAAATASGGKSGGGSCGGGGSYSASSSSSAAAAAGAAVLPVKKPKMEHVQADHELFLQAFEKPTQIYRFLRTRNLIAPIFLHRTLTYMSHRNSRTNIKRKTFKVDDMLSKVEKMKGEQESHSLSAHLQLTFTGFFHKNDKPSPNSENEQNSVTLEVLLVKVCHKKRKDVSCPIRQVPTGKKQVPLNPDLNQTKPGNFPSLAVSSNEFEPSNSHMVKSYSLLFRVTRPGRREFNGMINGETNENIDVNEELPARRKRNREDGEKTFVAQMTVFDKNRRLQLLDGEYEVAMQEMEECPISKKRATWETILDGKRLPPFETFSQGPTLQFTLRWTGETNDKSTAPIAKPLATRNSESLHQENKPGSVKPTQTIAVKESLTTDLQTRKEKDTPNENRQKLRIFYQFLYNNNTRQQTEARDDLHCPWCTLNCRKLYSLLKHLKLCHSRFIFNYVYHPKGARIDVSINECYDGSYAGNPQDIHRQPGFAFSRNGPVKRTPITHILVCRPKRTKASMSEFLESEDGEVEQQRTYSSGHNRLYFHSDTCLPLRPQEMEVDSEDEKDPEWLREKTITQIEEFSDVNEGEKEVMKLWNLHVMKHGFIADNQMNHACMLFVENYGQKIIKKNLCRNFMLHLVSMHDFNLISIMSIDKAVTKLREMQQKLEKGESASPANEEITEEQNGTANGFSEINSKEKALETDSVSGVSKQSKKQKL

## CC(C)=CCC[C@@H]1COc2c(C)cc(O)c3c2[C@H]1CC[C@H]3C [Compound 3, 5,18-epoxy-8-hydroxyserrulat-14-ene]
[1]
  inhibition at 10 µM: -12%
[2]
  inhibition at 10 µM: 6%
[3]
  inhibition at 10 µM: 3%
[4]
  inhibition at 10 µM: 3%
[5]
  inhibition at 10 µM: -2%
[6]; all 44 cell lines
  effect on cell viability: no significant effect
[6]; 4T1 (Breast Cancer)
  % Cell growth: 99%
[6]; A375 (Skin)
  % Cell growth: 100%
[6]; A-431 (Skin)
  % Cell growth: 102%
[6]; A-498 (Kidney Cancer)
  % Cell growth: 92%
[6]; ACHN (Kidney Cancer)
  % Cell growth: 105%
[6]; B16-F0 (Melanoma)
  % Cell growth: 116%
[6]; BT474 (Breast Cancer)
  % Cell growth: 108%
[6]; CT26.WT (Colon Cancer)
  % Cell growth: 103%
[6]; DLD-1 (Colon Cancer)
  % Cell growth: 101%
[6]; H33HJ-JA1 (Lymphoma)
  % Cell growth: 90%
[6]; HC-4 (Liver Cancer)
  % Cell growth: 105%
[6]; HCT-15 (Colon Cancer)
  % Cell growth: 116%
[6]; HCT-116 (Colon Cancer)
  % Cell growth: 99%
[6]; HT-29 (Colon Cancer)
  % Cell growth: 101%
[6]; Hep3B (Liver Cancer)
  % Cell growth: 84%
[6]; HepG2 (Liver Cancer)
  % Cell growth: 103%
[6]; K-562 (Leukemia)
  % Cell growth: 93%
[6]; KATO III (Stomach)
  % Cell growth: 105%
[6]; LL/2 (Non-Small Cell Lung Cancer)
  % Cell growth: 111%
[6]; LNCaP (Prostrate Cancer)
  % Cell growth: 84%
[6]; MCF7 (Breast Cancer)
  % Cell growth: 112%
[6]; MCF-7 AdrR (Breast Cancer)
  % Cell growth: 101%
[6]; MDA-MB-231 (Breast Cancer)
  % Cell growth: 100%
[6]; MDA-MB-468 (Breast Cancer)
  % Cell growth: 85%
[6]; MES-SA (Uterus)
  % Cell growth: 94%
[6]; MIA PaCa-2 (Pancreas)
  % Cell growth: 106%
[6]; MOLT-4 (Leukemia)
  % Cell growth: 77%
[6]; MV-411 (Leukemia)
  % Cell growth: 76%
[6]; NCI-H460 (Non-Small Cell Lung Cancer)
  % Cell growth: 100%
[6]; OVCAR-3 (Ovarian Cancer)
  % Cell growth: 86%
[6]; PANC-1 (Pancreas)
  % Cell growth: 116%
[6]; PC-3 (Prostrate Cancer)
  % Cell growth: 64%
[6]; PC-6 (Non-Small Cell Lung Cancer)
  % Cell growth: 96%
[6]; Ramos (Lymphoma)
  % Cell growth: 129%
[6]; SK-MEL-5 (Melanoma)
  % Cell growth: 118%
[6]; SK-N-MC (Brain)
  % Cell growth: 82%
[6]; SK-OV-3 (Ovarian Cancer)
  % Cell growth: 98%
[6]; SW-620 (Colon Cancer)
  % Cell growth: 107%
[6]; T-47D (Breast Cancer)
  % Cell growth: 119%
[6]; U937 (Lymphoma)
  % Cell growth: 105%
[6]; U-87 MG (Brain)
  % Cell growth: 111%
[7]
  inhibition at 10 µM: 7%
